The NIST ThermoML archive (doi:10.1016/j.fluid.2014.09.014)

Assay: refractive index (other wavelength) (dimensionless); xn = mol fraction of the nth substance listed
Conditions: 318.15 K, 101 kPa, Liquid, Standard Abbe refractometry

CC(C)OC(C)C [diisopropyl ether] + CO
refractive index
Conditions | Wavelength=486.1 nm | Wavelength=546.1 nm | Wavelength=587.6 nm | Wavelength=589.3 nm | Wavelength=632.8 nm | Wavelength=644 nm | Wavelength=706.5 nm
x2 = 0 | – | 1.35556 | 1.35416 | 1.35411 | 1.3529 | 1.35259 | 1.3512
x2 = 0.0423 | – | 1.35556 | 1.35414 | 1.35409 | 1.35285 | 1.35256 | 1.35117
x2 = 0.0424 | – | 1.35551 | 1.3541 | 1.35405 | 1.35283 | 1.35253 | 1.35116
x2 = 0.082 | – | 1.35551 | 1.35411 | 1.35406 | 1.35285 | 1.35255 | 1.35115
x2 = 0.0822 | – | 1.35565 | 1.35423 | 1.35418 | 1.35295 | 1.35267 | 1.35128
x2 = 0.1171 | – | 1.35556 | 1.35417 | 1.35412 | 1.3529 | 1.35259 | 1.3512
x2 = 0.1271 | – | 1.35557 | 1.35415 | 1.3541 | 1.35289 | 1.3526 | 1.35122
x2 = 0.1827 | 1.35814 | 1.35541 | 1.354 | 1.35395 | 1.35273 | 1.35243 | 1.35105
x2 = 0.2162 | 1.35804 | 1.35526 | 1.35387 | 1.35382 | 1.35262 | 1.35233 | –
x2 = 0.251 | 1.35753 | 1.35479 | 1.35338 | 1.35333 | 1.35213 | 1.35185 | –
x2 = 0.3298 | 1.358 | 1.35528 | 1.35387 | 1.35292 | 1.35259 | 1.35229 | 1.35092
x2 = 0.3577 | 1.35689 | 1.35419 | 1.35274 | 1.35269 | 1.35147 | 1.3512 | 1.34984
x2 = 0.4497 | 1.35572 | 1.35303 | 1.35162 | 1.35157 | 1.35038 | 1.3501 | 1.34871
x2 = 0.4525 | 1.35631 | 1.3537 | 1.35228 | 1.35223 | 1.35098 | 1.35071 | 1.34936
x2 = 0.522 | 1.35398 | 1.35136 | 1.34995 | 1.34989 | 1.34869 | 1.34842 | 1.34709
x2 = 0.5543 | 1.35305 | 1.35042 | 1.34905 | 1.349 | 1.34779 | 1.34751 | 1.34616
x2 = 0.609 | 1.35085 | 1.34818 | 1.34684 | 1.3468 | 1.34566 | 1.34538 | 1.34405
x2 = 0.6529 | 1.34936 | 1.34672 | 1.34534 | 1.34529 | 1.34413 | 1.34386 | 1.34255
x2 = 0.7504 | 1.34529 | 1.34271 | 1.34138 | 1.34133 | 1.34018 | 1.3399 | 1.33858
x2 = 0.804 | 1.33919 | 1.33675 | 1.33541 | 1.33536 | 1.33421 | 1.33396 | 1.33271
x2 = 0.807 | 1.34094 | 1.33842 | 1.33709 | 1.33777 | 1.33591 | 1.33566 | 1.33438
x2 = 0.8727 | 1.3379 | 1.33543 | 1.33411 | 1.33406 | 1.33294 | 1.33269 | 1.33146
x2 = 0.9233 | 1.32983 | 1.32743 | 1.32614 | 1.3261 | 1.32501 | 1.32477 | 1.3236
x2 = 0.9253 | 1.33151 | 1.32907 | 1.32777 | 1.32772 | 1.32665 | 1.32641 | 1.32521
x2 = 0.9527 | 1.32842 | 1.32601 | 1.32474 | 1.32469 | 1.32362 | 1.32339 | 1.32222
x2 = 0.9773 | 1.32541 | 1.32301 | 1.32177 | 1.32173 | 1.32066 | 1.32042 | 1.3193
x2 = 0.989 | 1.3242 | 1.32177 | 1.32052 | 1.32048 | 1.31944 | 1.31921 | 1.31807
x2 = 0.9964 | 1.32328 | 1.3209 | 1.31967 | 1.31963 | 1.31859 | 1.31836 | 1.31724
